Values joined by “and” are separate entries in the source; they are usually repeats but may differ in a detail not shown here. Identical values can stand only once.
Key:
hM4Di [1] = molecular target: T1, hM4Di (Homo sapiens, UniProt P08173, A203G/Y113C); assay: [3H]clozapine competition binding, membranes of HEK-293 cells expressing hM4Di
T1 sequence (P08173 1-479 Y113C/A203G): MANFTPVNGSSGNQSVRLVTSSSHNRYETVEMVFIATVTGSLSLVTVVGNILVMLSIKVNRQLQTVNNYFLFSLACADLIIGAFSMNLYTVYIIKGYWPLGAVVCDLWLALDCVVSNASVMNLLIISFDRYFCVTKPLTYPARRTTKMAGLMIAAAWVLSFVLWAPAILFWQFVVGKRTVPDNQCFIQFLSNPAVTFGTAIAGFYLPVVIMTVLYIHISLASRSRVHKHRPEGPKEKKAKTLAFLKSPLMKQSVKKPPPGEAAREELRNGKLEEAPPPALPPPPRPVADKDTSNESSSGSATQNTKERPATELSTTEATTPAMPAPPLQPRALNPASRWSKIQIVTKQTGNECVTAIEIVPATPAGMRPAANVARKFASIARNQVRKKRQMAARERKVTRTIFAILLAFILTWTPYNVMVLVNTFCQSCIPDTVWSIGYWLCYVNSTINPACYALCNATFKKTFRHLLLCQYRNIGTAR
Protocol: (§2) Cells were routinely tested for myclopasma contamination (MycoAlert® Mycoplasma Detection Kit, Lonza). Cells were seeded on 60 cm^2 dishes at 4 × 10^6 cells/dish 24 h before transfection. The indicated amount of cDNA was transfected into HEK-293 cells using polyethylenimine (PEI; Sigma-Aldrich) in a 1–2 DNA:PEI ratio. Cell harvesting for radioligand binding experiments or signaling assays were performed approximately 48 h after transfection.
(§3) Cells were suspended in Tris-HCl 50 mM pH 7.4 supplemented with protease inhibitor cocktail (1:100, Sigma-Aldrich, St. Louis, MO, USA). The dissected brain tissue was diluted in Tris-HCl 50 mM buffer supplemented with protease inhibitor cocktail (1:1000). HEK-293 cells or brain tissue were disrupted with a Polytron homogenizer (Kinematica, Basel, Switzerland). Homogenates were centrifuged at 48,000g (50 min, 4 °C) and washed twice in the same conditions to isolate the membrane fraction. Protein was quantified by the bicinchoninic acid method (Pierce). […] In all cases, free and membrane-bound radioligand were separated by rapid filtration of 500-μl aliquots in a 96-well plate harvester (Brandel, Gaithersburg, MD, USA) and washed with 2 ml of ice-cold Tris-HCl buffer. […] One-site competition curves were fitted using Prism 7 (GraphPad Software, La Jolla, CA, USA). Ki values were calculated using the Cheng–Prusoff equation.

[2] = tested on: untransfected HEK-293 cells; assay: Negative controls of the functional assays: HEK-293 cells without DREADD; format: cell-based, human; conditions: HEK-293 cells
Protocol: BRET assays were performed to detect receptor ligand-induced Gαo1 protein activation. […] Forty-eight hour after transfection cells were harvested, washed and resuspended in phosphate-buffered saline (PBS). Approximately, 200,000 cells/well were distributed in 96-well plates, and 5 µM Coelenterazine H (substrate for luciferase) was added to each well. Five minutes after addition of Coelenterazine H, ligands were added to each well. The fluorescence of the acceptor was quantified (excitation at 500 nm and emission at 540 nm for 1-s recordings) in a PheraStar FSX plate reader (BMG Labtech) to confirm the constant expression levels across experiments. In parallel, the BRET signal from the same batch of cells was determined as the ratio of the light emitted by mVenus (510–540 nm) over that emitted by RLuc (485 nm). Results were calculated for the BRET change (BRET ratio for the corresponding drug minus BRET ratio in the absence of the drug) 5 min after the addition of the ligands.
Intracellular Ca^2+ concentration was monitored using the fluorescent Ca^2+ biosensor GCaMP6f. HEK-293 cells were transfected with 7 µg/dish of the cDNA encoding for hM3Dq (Addgene #89149) or hM4Di (Addgene #89150) and 7 µg/dish of GCaMP6. Forty-eight hours after transfection, cells were harvested, washed, resuspended in Mg^2+-free Locke’s buffer pH 7.4 (154 mM NaCl, 5.6 mM KCl, 3.6 mM NaHCO3, 2.3 mM CaCl2, and 5 mM HEPES) containing 5.6 mM of glucose and approximately 200,000 cells/well were distributed in black 96-well plates. Increasing concentrations of the indicated compound were added to the cells and fluorescence intensity (excitation at 480 nm, emission at 530 nm) was measured at 18-s intervals during 250 s using a PHERAstar FSX (BMG Labtech). The net change in intracellular Ca^2+ concentration was expressed as F − F0 where F is the fluorescence at a given concentration of ligand and F0 is the average of the baseline values (fluorescence values of buffer-treated wells).

hM3Dq = hM3Dq (Homo sapiens, UniProt P20309, A239G/Y149C); assay: [3H]clozapine competition binding, membranes of HEK-293 cells expressing hM3Dq
hM3Dq, sequence (P20309 whole entry Y149C/A239G): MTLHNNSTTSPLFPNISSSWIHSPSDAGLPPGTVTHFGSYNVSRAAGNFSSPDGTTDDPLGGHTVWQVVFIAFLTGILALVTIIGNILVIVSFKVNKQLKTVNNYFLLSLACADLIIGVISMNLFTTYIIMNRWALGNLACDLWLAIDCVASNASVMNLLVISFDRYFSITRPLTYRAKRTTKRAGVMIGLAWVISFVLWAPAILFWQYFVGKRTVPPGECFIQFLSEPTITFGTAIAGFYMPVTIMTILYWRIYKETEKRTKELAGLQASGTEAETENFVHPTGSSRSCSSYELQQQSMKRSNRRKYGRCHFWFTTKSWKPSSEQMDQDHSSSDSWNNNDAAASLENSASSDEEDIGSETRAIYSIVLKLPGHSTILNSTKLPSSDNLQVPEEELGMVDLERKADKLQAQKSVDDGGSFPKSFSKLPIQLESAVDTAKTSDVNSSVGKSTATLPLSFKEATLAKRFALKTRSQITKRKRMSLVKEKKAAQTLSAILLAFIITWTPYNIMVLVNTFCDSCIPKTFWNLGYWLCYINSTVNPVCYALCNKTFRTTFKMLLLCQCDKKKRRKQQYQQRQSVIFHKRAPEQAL
Protocol: as §2, §3

hM4Di [3] = molecular target: T1, hM4Di; assay: [18F]JHU37107 PET in a monkey expressing hM4Di in the right amygdala; format: in vivo, rhesus monkey (Macaca mulatta); set-up: expressed in transfected cells; host or cells: rhesus monkey (Macaca mulatta) right amygdala, lentivirus-transduced neurons; conditions: mean
Protocol: Lentivirus expressing an hM4Di-CFP fusion protein under an hSyn promoter[11] with a titer of >10^9 infectious particles was loaded into a 100 µL glass syringe (Hamilton Co., MA). The 31-gauge needle of the syringe was sheathed with a silica capillary (450 µm OD) to create a step 1 mm from the base of the aperture. The syringe was mounted in a Nanomite pump (Harvard Apparatus, Cambridge, MA). The needle was lowered through the incision in the dura mater to each of the pre-calculated target sites and 10 or 20 µL was infused at a rate of 1 µL min^−1. Each monkey received a total of between 10 and 12 injections (for a total injection volume of 120–240 µL). Post-infusion, the needle was left in situ for 10 min after each injection to allow pressure from the infusate to dissipate. The needle was then slowly removed. At the completion of the injection series the soft tissues were sutured together in anatomical layers.
(§1) [^18F]JHU37107 was prepared via the no-carrier-added ^18F-fluorination using an FDG Nuclear Interface module (Muenster, Germany). Briefly, 4 mg precursor (8-chloro-11-(4-ethylpiperazin-1-yl)-5H-dibenzo[b,e][1,4]diazepin-2-ol) and 8 mg tris(acetonitrile)cyclopentadienylruthenium(II)hexafluorophosphate (STREM, Boston, MA) were dissolved in ethanol (0.3 mL), the solution was heated at 85 °C for 25 min and evaporated to dryness under a stream of argon gas. The residue was dissolved in DMSO (0.5 mL) and acetonitrile (0.5 mL) and the solution was added to a dry complex of [^18F]fluoride and 9 mg 1,3-bis(2,6-di-i-propylphenyl)-2-chloroimidazolium chloride (STREM). The reaction mixture was heated at 130 °C for 30 min, diluted with mixture of 0.5 mL acetonitrile, 0.5 mL water and 0.03 mL TFA and injected onto a semi-preparative HPLC column (Luna C18, 10 micron, 10 mm × 250 mm) and eluted with 23:77 (v:v) acetonitrile:water (0.1% trifluoroacetic acid) at a flow rate of 10 mL min^−1. The radioactive peak corresponding to [^18F]JHU37107 (tR = 9.9 min) was collected in a reservoir containing 50 mL of water and 3 mL aq 8.4% NaHCO3 solution. The diluted product was loaded onto a solid phase extraction cartridge (Waters Oasis HLB plus light) and rinsed with 10 mL sterile saline. The product was eluted with 1000 µL of ethanol through a sterile 0.2 μm filter into a sterile, pyrogen-free vial and 10 mL saline was added through the same filter. The final product [^18F]JHU37107 was then analyzed by analytical HPLC (Luna C18, 10 micron, 4.6 mm × 250 mm; mobile phase 23:77 (v:v) acetonitrile:water (0.1% trifluoroacetic acid), flow rate of 3 mL min^−1; tR = 6.4 min) using a UV detector at 254 nm to determine the radiochemical purity (>95%) and specific radioactivity (152–188 GBq μmol^−1 (4100–5070 mCi μmol^−1)) at the time synthesis ended.
All macaque studies were acquired dynamically on the Focus 220 PET scanner (Siemens Medical Solutions, Knoxville, TN). The Focus 220 is a dedicated pre-clinical scanner with a transaxial FOV of 19 cm and an axial FOV of 7.5 cm. Image resolution is <2 mm within the central 5 cm FOV.
After initial evaluation the monkey was sedated with ketamine (10 mg kg^−1) followed by ketoprofen (as an analgesic) and glycopyrrolate (for salvia reduction), all weight dependent IM injections. The monkey would then be placed in the supine position, intubated with a tracheal tube. […] The monkey was always monitored while anesthetized. […]

DREADDs = assay: [18F]JHU37107 PET in D1-DREADD transgenic mice; format: in vivo
Protocol: as §1, with “[…] .” for “tR = 6.4 min) using a UV detector at 254 nm to determine the radiochemical purity (>95%) and specific radioactivity (152–188 GBq μmol^−1 (4100–5070 mCi μmol^−1)) at the time synthesis ended.”
Total acquisition time was 60 min.

Molecule `CCN1CCN(C2=Nc3ccccc3Nc3ccccc32)CC1` [C22, reference compound] has a Ki (hM4Di [1]) of 9 nM.
`C[N+]1([O-])CCN(C2=Nc3cc(Cl)ccc3Nc3ccccc32)CC1` [CNO, clozapine N-oxide, reference compound] was tested, and the “functional response, BRET (Go-alpha-Rluc8, beta1, gamma2-mVenus), no DREADD” value [2] was “did not show any functional response” and the “functional response, GCaMP6f, no DREADD” value [2] was “did not show any functional response”.
`CCN1CCN(C2=Nc3cc(Cl)ccc3Nc3ccc(F)cc32)CC1` [JHU37107, 8-Chloro-11-(4-ethylpiperazin-1-yl)-2-fluoro-5H-dibenzo[b,e][1,4]diazepine] gave a Ki (hM3Dq) of 10.5 nM and a Ki (hM4Di [1]) of 23.5 nM.
With `CCN1CCN(C2=Nc3cc(Cl)ccc3Nc3ccc([18F])cc32)CC1` [[18F]JHU37107] the “PET binding value, PFC mean (Figure 4, second Panel l)” value (hM4Di [3]; PFC) was 1.094, the “PET binding value, PUT mean (Figure 4, second Panel l)” value (hM4Di [3]; PUT) was 1.196 and the “PET binding value, hM4Di mean (Figure 4, second Panel l)” value (hM4Di [3]; hM4Di region) was 2.423. For the same molecule, the “PET binding value, CB (Figure 4 Panel D, first group)” value (DREADDs; CB, individual values) was 0.271 and 0.3157, the “PET binding value, CB (Figure 4 Panel D, second group)” value (DREADDs; CB, individual values) was 0.004 and 0.238 and the “PET binding value, CB (Figure 4 Panel D, third group)” value (DREADDs; CB, individual values) was 0.02536 and 0.05718 and 0.04755. The “PET binding value, CTX (Figure 4 Panel D, first group)” value (DREADDs; CTX, individual values) was 0.3049 and 0.3358, the “PET binding value, CTX (Figure 4 Panel D, second group)” value (DREADDs; CTX, individual values) was 0.244 and 0.22 and the “PET binding value, CTX (Figure 4 Panel D, third group)” value (DREADDs; CTX, individual values) was 0.4367 and 0.4206 and 0.3996. The “PET binding value, baseline (Figure 4 Panel D)” value (DREADDs; first line (values equal the STR values of the third group)) was 1.736 and 1.664 and 1.424 and 1.7038 and 1.723 and 1.422, the “PET binding value, baseline (Figure 4 Panel D)” value (DREADDs; second line (values equal the CTX values of the third group)) was 0.4367 and 0.4206 and 0.3996 and the “PET binding value, blocked (Figure 4 Panel D)” value (“PET binding value, blocked” below) (DREADDs; first line (STR by position)) was 0.6764 and 0.9438 and 0.6607 and 0.8306. For the same molecule, the “PET binding value, blocked” value (DREADDs; second line (CTX by position)) was 0.2742 and 0.4049 and the “PET binding value, blocked” value (DREADDs; third line (CB by position)) was 0.2463 and 0.2748.

Source: article PMC6788984, “High-potency ligands for DREADD imaging and activation in rodents and monkeys” (Nature Communications, 2019)
